Experimental data taken from ChEMBL document CHEMBL1136349, “Identification of a monoacid-based, cell permeable, selective inhibitor of protein tyrosine phosphatase 1B” (Bioorg Med Chem Lett, 2003).
pKi: −log10 of the molar value.

Each molecule was assayed on Caco-2 (assay: Papp in Caco-2 permeability assay.). Settings: Homo sapiens.
Format: functional, cell-based

SMILES | Papp [cm/s]
COC(=O)c1c(O)cccc1OCCCCNC(=O)[C@H](Cc1ccc(OCC(=O)O)cc1)NC(=O)OC(C)(C)C | 1e-05
CCc1cc(CC(NC(C)=O)C(=O)NCCCCOc2cccc(O)c2C(=O)OC)ccc1N(C(=O)C(=O)O)c1ccccc1C(=O)O (stereo not given) | < 1e-06
COC(=O)c1c(O)cccc1OCCCCNC(=O)[C@H](Cc1ccc(NC(=O)C(=O)O)cc1)NC(=O)OC(C)(C)C | < 1e-06
COC(=O)c1c(O)cccc1OCCCCNC(=O)[C@H](Cc1ccc(OCC(=O)O)c(O)c1)NC(C)=O | > 1e-05

What follows are molecules tested against T1, Tyrosine-protein phosphatase non-receptor type 1 (Homo sapiens, UniProt P18031) (assay: Inhibition of Protein-tyrosine phosphatase 1B). Settings: not given.
T1 sequence (P18031 whole entry): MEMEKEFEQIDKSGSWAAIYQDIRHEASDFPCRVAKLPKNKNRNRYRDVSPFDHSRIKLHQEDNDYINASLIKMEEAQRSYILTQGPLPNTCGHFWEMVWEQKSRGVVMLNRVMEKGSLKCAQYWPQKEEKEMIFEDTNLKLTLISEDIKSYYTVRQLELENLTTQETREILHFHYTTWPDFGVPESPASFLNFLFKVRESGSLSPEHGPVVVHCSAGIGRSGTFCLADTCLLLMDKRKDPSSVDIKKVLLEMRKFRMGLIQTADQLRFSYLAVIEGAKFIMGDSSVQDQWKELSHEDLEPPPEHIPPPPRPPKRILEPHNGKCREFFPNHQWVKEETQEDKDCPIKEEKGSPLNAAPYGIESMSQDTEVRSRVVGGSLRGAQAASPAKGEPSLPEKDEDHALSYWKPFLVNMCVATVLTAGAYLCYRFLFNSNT

SMILES | pKi
COC(=O)c1c(O)cccc1OCCCCNC(=O)[C@H](Cc1ccc(OCC(=O)O)c(N)c1)NC(C)=O | < 3.70
CCCCC(C)NC(=O)[C@H](Cc1ccc(OCC(=O)O)c(C2N=NN=N2)c1)NC(=O)[C@H](Cc1ccccc1)NC(=O)OC(C)(C)C (stereo not given in full) | 5.70
COC(=O)c1c(O)cccc1OCCCCNC(=O)[C@H](Cc1ccc(/C=C\C(=O)O)cc1)NC(=O)OC(C)(C)C | < 3.70
COC(=O)c1c(O)cccc1OCCCCNC(=O)[C@H](Cc1ccc(OC(CO)C(=O)O)cc1)NC(=O)OC(C)(C)C (stereo not given in full) | < 3.70
COC(=O)c1c(O)cccc1OCCCCNC(=O)[C@H](Cc1ccc(NCC(=O)O)cc1)NC(=O)OC(C)(C)C | < 3.70
COC(=O)c1c(O)cccc1OCCCCNC(=O)[C@H](Cc1ccc(OCC(=O)O)c(C(=O)O)c1)NC(C)=O | 5.66

More lines, now with the values ahead:

pKi | SMILES
< 3.70 | COC(=O)c1c(O)cccc1OCCCCNC(=O)[C@H](Cc1ccc(NC(=O)C(F)(F)F)cc1)NC(C)=O
< 3.70 | COC(=O)c1c(O)cccc1OCCCCNC(=O)[C@H](Cc1ccc(NS(=O)(=O)C(F)(F)F)cc1)NC(C)=O
5.21 | COC(=O)c1c(O)cccc1OCCCCNC(=O)[C@H](Cc1ccc(NC(=O)C(=O)O)cc1)NC(C)=O
< 3.70 | COC(=O)c1c(O)cccc1OCCCCNC(=O)[C@H](Cc1ccc(NC(=O)c2ncccc2O)cc1)NC(C)=O
< 3.70 | COC(=O)c1c(O)cccc1OCCCCNC(=O)[C@H](Cc1ccc(NC(=O)CO)cc1)NC(C)=O
